{
  "source": "patent US20250114325A1",
  "about": "(JIANGSU PROVINCE HOSPITAL OF CHINESE MEDICINE, priority 2022, published 2025)",
  "format_in_all_cases": "cell-based, human",
  "key": {"SiHa cells [1]": {"test_system": "SiHa cells", "assay": "Annexin V-AF647/PI flow cytometry apoptosis assay", "conditions": "added to Atr-I (BzATP 100 μM or JNJ 20 μM); 48 h", "method": "(§2) The cell lines selected were human cervical cancer Hela (HPV18+) and Siha (HPV16+) cell lines.\n(§3) The proportion of apoptotic cells was measured using the Annexin V-AF647/PI Apoptosis Kit (E-CK-A213; Elabscience Biotechnology, Wuhan, China). The cells in logarithmic growth phase were used and seeded in a culture bottle at a suspension density of 1×10^6 cells/mL, and then cultured in a CO2 incubator for 24 h. […] Subsequently, the cells were re-suspended in 500 μL of the binding buffer. After adding 5 μL of Annexin V-AF647 and 5 μL of PI to the cell suspension, respectively, the cell cycle was assayed using FACSCalibur flow cytometry (BD Biosciences, San Jose, CA, USA). The data were analyzed with FlowJo software (FlowJo, Ashland, OR, USA)."}, "Hela cells [2]": {"test_system": "Hela cells", "assay": "Annexin V-AF647/PI flow cytometry apoptosis assay", "conditions": "added to Atr-I (BzATP 100 μM or JNJ 20 μM); 48 h", "method": "as §2, §3"}, "SiHa cells [3]": {"test_system": "SiHa cells", "assay": "Cell proliferation experiment (CCK-8 cell viability)", "conditions": "single agent, 24 h, 48 h, 72 h, dose and time-dependent", "description": "(§1) Assay of cell viability by CCK-8 kit: Cells (cell density: 1000 cells/well) were inoculated in a 96-well plate and cultured for 24 hours. […] Cell proliferation was detected using Cell Counting Kit-8 (CCK-8)."}, "Hela cells [4]": {"test_system": "Hela cells", "assay": "Cell proliferation experiment (CCK-8 cell viability)", "conditions": "single agent, 24 h, 48 h, 72 h, dose and time-dependent", "description": "as §1"}},
  "data": [
    {"compound": "Nc1ncnc2c1ncn2[C@@H]1O[C@H](COP(=O)(O)OP(=O)(O)OP(=O)(O)O)[C@@H](OC(=O)c2ccc(C(=O)c3ccccc3)cc2)[C@H]1O", "note": "[BzATP]", "values": [
      {"measurement": "effect on Atr-I-induced apoptosis in SiHa cells", "setting": "SiHa cells [1]", "value": "had no effect on Atr-I-induced apoptosis in SiHa cells"},
      {"measurement": "effect on Atr-I-induced apoptosis in Hela cells", "setting": "Hela cells [2]", "value": "inhibited Atr-I-induced apoptosis in Hela cells"},
      {"measurement": "inhibition of growth of SiHa cells", "setting": "SiHa cells [3]", "value": "significantly inhibited the growth"},
      {"measurement": "inhibition of growth of Hela cells", "setting": "Hela cells [4]", "value": "significantly inhibited the growth"}
    ]}
  ]
}
